This is an account of results in patent publication US7829560B2, “1,4-disubstituted naphthalenes as inhibitors of P38 MAP kinase” (Arqule, Inc., priority 2004, dated 2010).

One test has as its target T1, p38α (Homo sapiens, UniProt Q16539).
T1 construct: p38 MAP Kinases are recombinant human full-length proteins with an amino-terminal GST fusion; GST (N); purchased Upstate Biotechnology Inc; host or cells: E. coli
Description: p38 MAP Kinase assay: inhibition of ATF2 phosphorylation, ELISA. In kind it is biochemical. The note with it: for pIC50: ATF2 phosphorylation, read-out: [ENZ] P38 ALPHA, IC50, ELISA; for inhibition at 10 µM: substrate ATF2, read-out: [ENZ] P38 ALPHA, PCT INH, ELISA (10 uM;ATF2) (Percent). From the text:
Compounds of the invention are screened for the ability to inhibit ATF2 phosphorylation by p38 MAP Kinase in vitro. The ability of compounds to inhibit ATF2 phosphorylation in this in vitro assay is correlated with the inhibition of p38 MAP Kinase and TNFα expression in vivo, and is therefore an indicator of potential in vivo therapeutic activity (Raingeaud, J., et al, J. Biol. Chem., 270: 7420-7426, 1995, Brinkman, M. N., et al, J. Biol. Chem. 274: 30882-30886, 1999 and Fuchs, S. Y. et al, J. Biol. Chem. 275: 12560-12564, 2000).
Materials: All kinases and the substrate ATF2 are acquired from Upstate Biotechnology Inc. p38 MAP Kinases are recombinant human full-length proteins with an amino-terminal GST fusion, expressed in and purified from E. coli. ATF2 is a GST fusion protein containing amino acids 19-96 of human ATF2 expressed in E. coli. All proteins are aliquoted and stored at −80° C.
Methods: p38 MAP Kinase assays are performed using an assay buffer containing 25 mM HEPES, pH 7.5, 10 mM MgCl2, 2 mM DTT, 20 mM β-glycerophosphate, 0.1 mM Na3VO4, 40 μM ATP and 1.25 μM of ATF2 and in the absence or presence of 1% human serum albumin, Method I and II, respectively, with 0.4-6 ng of protein depending on the kinase used. Compounds are serially diluted in DMSO and 2 μL of test compound at 25× final concentration is used. The vehicle control receives DMSO only. Test compounds are pre-incubated with 20 μl of enzyme in kinase buffer (25 mM HEPES, pH 7.5, 10 mM MgCl2, 2 mM DTT, 20 mM β-glycerophosphate, 0.1 mM Na3VO4 in the absence or presence of 1% human serum albumin, Method I and II, respectively) at room temperature for 15 minutes. […] The reactions are incubated for 30 minutes at 37° C. and terminated by the addition of 18 μl of 200 mM EDTA. An ELISA method (I or II) is used to measure the phosphorylation of ATF2 at Thr 69. Method I: 96-well high binding plates (Corning 3369) are coated with 50 μl of kinase reaction for 1 hour at 37° C. The coated plates are washed with 200 μl washing buffer (25 mM Tris HCl, pH 8.3, 192 mM glycine, 0.1% SDS and 0.05% Tween-20) three times. The plates are then washed three times with SuperBlock in TBS (Pierce, 37535). After blocking, plates are incubated with 50 μl of rabbit anti-phospho-ATF2 antibody (Cell Signaling, 9221L, 1:500) for 30 minutes at 37° C. Plates are washed three times with washing buffer prior to incubation with 50 μl HRP-conjugated goat anti-rabbit antibody (Cell Signaling, 7074, 1:500) for 30 minutes at 37° C. Plates are then washed three times with washing buffer before incubation with 50 μl of Ultra TMB-ELISA (Pierce, 34028) for 8 minutes at room temperature. Finally, 50 ul of phosphoric acid (1 M) is added to stop reactions and plate absorbance is read at 450 nm on a SpectraMax 250 plate reader. Method II: 96-well high binding plates (Corning 3369) are coated with 400 ng of monoclonal antibody against GST-tag (Cell signaling) in 100 μl containing sodium borate (pH 8.3) for 90 minutes at 37° C. The plates are washed with 200 μl washing buffer (25 mM Tris HCl, pH 7.2, 150 mM NaCl and Tween-20) three times and blocked with 200 μl of 5% nonfat milk for 30 minutes at room temperature. The plates are washed three times with washing buffer, 50 μl of stopped kinase reaction are added to each well and incubated for 80 minutes at 37° C. The plates are washed three times with 200 μl washing buffer, and the plates are incubated with 50 μl of rabbit anti-phospho-ATF2 antibody (Cell Signaling, 9221L, 1:500) for 30 minutes at 37° C. Plates are washed three times with washing buffer prior to incubation with 50 μl HRP-conjugated goat anti-rabbit antibody (Cell Signaling, 7074, 1:500) for 30 minutes at 37° C. Plates are washed three times with washing buffer before incubation with 50 μl of Ultra TMB-ELISA (Pierce, 34028) for 25 minutes at room temperature. Finally, 50 μl of phosphoric acid (1 M) is added to stop reactions and plate absorbance is read at 450 nm on a SpectraMax 250 plate reader. […]
In general terms: An ELISA detects its analyte on a solid surface through an enzyme-linked reagent.

For test [1], the system named is TNFα release from THP-1 cells. Nature of the test: Inhibition of TNFα release from LPS-stimulated THP-1 cells, ELISA. It counts as cell-based. Conditions: Homo sapiens, THP-1, THP-1 cells, read-out: [CELL] THP-1, IC50, TNF ALPHA, ELISA. The text has this:
Compounds of the invention are screened for the ability to inhibit TNFα and IL-1β release from THP-1 cells stimulated with lipopolysaccharide (LPS) in vitro. The ability of compounds to inhibit TNFα and IL-1β release in this in vitro assay is correlated with the inhibition of p38 activity and TNFα and IL-1β expression in vivo, and is therefore an indicator of potential in vivo therapeutic activity (Lee J. C. et al, Ann. N.Y. Acad. Sci. 696: 149-170, 1993 and Nature, 372: 739-746, 1994).
Materials: THP-1 cells from ATCC (TIB202) are maintained at 37° C., 5% CO2 in RPMI 1640 media (available from MediaTech, Herndon, Va.) containing 4.5 g/L glucose, supplemented with 10% fetal bovine serum, 1% penicillin/streptomycin and 50 μM β-mercaptoethanol.
Methods: Test compounds are initially dissolved in RPMI media with 1% DMSO (v/v). Compounds are then serially diluted in RPMI media for all subsequent dilutions. The assay is performed under sterile conditions. THP-1 cells at a culture density of 6-8×10^5 cells/ml are collected and resuspended in the RPMI media at 10^6 cells/ml containing 10% fetal bovine serum, no serum or 1% human serum albumin (HSA). 100 μl of resuspended cells are added to each well, which contain 100 μl of a test compound. Test compounds are prepared at twice the final concentration. Final DMSO concentration is no more than 0.5% (v/v). Cells are preincubated with compound for 30 minutes at 37° C., 5% CO2 prior to stimulation with lipopolysaccharide (LPS) (Sigma L-2880, 4 mg/ml stock in PBS). The final LPS concentration in each well is 10 or 30 μg/ml for TNFα and IL-1β release, respectively. Unstimulated control cell suspensions receive PBS vehicle only. Cell mixtures are incubated for 18 or 48 hours for TNFα and IL-1β prelease, respectively. 150 μl of supernatants are taken and transferred to a fresh plate and stored at −20° C. until further analysis. TNFα and IL-1β levels are measured using ELISA kits from Biosource (Catalog no. KHC3012 for TNFα; KAC1192 for IL-1β). A SpectraMAX 250 is used as the plate reader. Analysis is performed by non-linear regression to generate a dose response curve. The calculated IC50 value is the concentration of the test compound that causes a 50% decrease in TNFα or IL-1β levels.

A word on the pIC50: it is the negative decadic logarithm of the IC50, by convention in mol/L.

pIC50: −log10 of the molar value. Where “and” joins values, the source holds several entries; their conditions need not be identical. Equal values may be shown once. Bounds are passed on as bounds.

T1 sequence (Q16539 whole entry, the tested form may be a part): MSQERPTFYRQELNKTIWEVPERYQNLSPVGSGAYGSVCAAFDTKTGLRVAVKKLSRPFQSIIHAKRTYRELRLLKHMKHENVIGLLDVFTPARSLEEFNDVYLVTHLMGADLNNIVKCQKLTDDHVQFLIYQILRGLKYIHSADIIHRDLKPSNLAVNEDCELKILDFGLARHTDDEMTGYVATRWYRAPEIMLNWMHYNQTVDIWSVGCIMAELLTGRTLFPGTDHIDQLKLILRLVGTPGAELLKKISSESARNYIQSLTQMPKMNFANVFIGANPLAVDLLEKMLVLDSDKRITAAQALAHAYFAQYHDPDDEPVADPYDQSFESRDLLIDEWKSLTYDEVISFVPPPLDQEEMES

Regarding `O=C(Nc1ccc(OCCN2CCCCC2)c2ccccc12)c1ccc(CN2CCOCC2)cc1` [Compound B2], the negative logarithm of the IC50 (pIC50) (at p38α; in test [1]) was less than 5.00 each time.
Take `CCOC(=O)N1CCN(CCOc2ccc(NC(=O)c3ccc(CN4CCOCC4)cc3)c3ccccc23)CC1` [Compound B3]: the negative-log IC50 (pIC50) (on p38α; in test [1]) was less than 5.00 in each case.
With `O=C(Nc1ccc(OCCN2CCSCC2)c2ccccc12)c1ccc(CN2CCOCC2)cc1` [Compound B4], the pIC50 at p38α is less than 4.00; in test [1], less than 5.00.
In the same order, the values of `C[C@@H]1CN(CCOc2ccc(NC(=O)c3ccc(CN4CCOCC4)cc3)c3ccccc23)C[C@H](C)O1` [Compound B5] are less than 5.00 and less than 5.00.
`C[C@@H]1CN(CCOc2ccc(NC(=O)c3cccc(N4CCOCC4)c3)c3ccccc23)C[C@H](C)O1` [Compound B19]: the inhibition at 10 µM at p38α stood at 65%. For the same compound, the negative logarithm of the IC50 (pIC50) at p38α is 5.05; in test [1], less than 5.00.
In the same order, the values of `O=C(Nc1ccc(OCCN2CCSCC2)c2ccccc12)c1cccc(N2CCOCC2)c1` [Compound B20] are 73.5%, 5.26 and less than 5.00.
For `O=C(Nc1ccc(OCCN2CCOCC2)c2ccccc12)c1ccccc1` [Compound B26], the negative logarithm of the IC50 (pIC50) is 4.66 on p38α and less than 5.00 in test [1].
In the same order, the values of `O=C(Nc1ccc(OCCN2CCOCC2)c2ccccc12)c1cc(Br)cc(I)c1` [Compound B27] are less than 4.00 and less than 5.00.
Regarding `O=C(Nc1ccc(OCCN2CCOCC2)c2ccccc12)c1cnc(N2CCOCC2)c2ccccc12` [Compound B28], the negative-log IC50 (pIC50) is less than 4.00 at p38α and less than 5.00 in test [1].
In the same order, the values of `O=C(Nc1ccc(OCCN2CCOCC2)c2ccccc12)c1ccc(N2CCOCC2)cc1` [Compound B29] are less than 5.00 and less than 5.00.
Turning to `O=C(Nc1ccc(OCCN2CCOCC2)c2ccccc12)c1ccc(N2CCOCC2)nc1` [Compound B30], the negative-log IC50 (pIC50) (on p38α; in test [1]) was less than 5.00 in each case.
In the case of `C[C@@H]1CN(c2cccc(C(=O)Nc3ccc(OCCN4CCOCC4)c4ccccc34)c2)C[C@H](C)O1` [Compound B31], the pIC50 is 5.00 on p38α and less than 5.00 in test [1].
Regarding `CC(=O)Nc1cccc(C(=O)Nc2ccc(OCCN3CCOCC3)c3ccccc23)c1` [Compound B32], the negative logarithm of the IC50 (pIC50) at p38α is 5.13; in test [1] it was less than 5.00.
On to `CN(C)c1cccc(C(=O)Nc2ccc(OCCN3CCOCC3)c3ccccc23)c1` [Compound B33], for which the results for the pIC50 (at p38α; in test [1]) were 4.53 and less than 5.00, respectively.
`CN(C)c1ccc(C(=O)Nc2ccc(OCCN3CCOCC3)c3ccccc23)cc1` [Compound B34]: the pIC50 on p38α is 4.97; in test [1], less than 5.00.
As to `CN(C)c1ccccc1C(=O)Nc1ccc(OCCN2CCOCC2)c2ccccc12` [Compound B35], the pIC50 is less than 4.00 on p38α and less than 5.00 in test [1].
Turning to `Cc1ccc(C(=O)Nc2ccc(OCCN3CCOCC3)c3ccccc23)cc1Br` [Compound B37], the results for the pIC50 (on p38α; in test [1]) were less than 4.00 and less than 5.00, respectively.
`O=C1CN(CCOc2ccc(NC(=O)c3cc(F)cc(N4CCCCC4)c3)c3ccccc23)CCN1` [Compound B164, 3-Fluoro-N-{4-[2-(3-oxo-piperazin-1-yl)-ethoxy]-naphthalen-1-yl}-5-piperidin-1-yl-benzamide]: at p38α, the inhibition at 10 µM turned out to be 83.5%; the pIC50 was 6.36 and 6.51.
Consider `O=C(Nc1ccc(OCCN2CCOCC2)c2ccccc12)c1cccc(N2CCc3ccccc3C2)c1` [Compound B168], for which the inhibition at 10 µM at p38α amounted to 36%.
On the same count and under the same terms, next, `O=C(Nc1ccc(OCCN2CCOCC2)c2ccccc12)c1cccc(NCc2ccc(F)cc2)c1` [Compound B170]: 46%; `O=C(Nc1ccc(OCCN2CCOCC2)c2ccccc12)c1cccc(N2CCC(N3CCCC3)CC2)c1` [Compound B171]: 16%.
For the compound `Cc1cccc(N2CCN(c3cccc(C(=O)Nc4ccc(OCCN5CCOCC5)c5ccccc45)c3)CC2)c1` [Compound B172], on p38α, the inhibition at 10 µM was determined as 25%.
`O=C(Nc1ccc(OCCN2C(=O)c3ccccc3C2=O)c2ccccc12)c1cc(F)cc(N2CCOCC2)c1` [Compound B187]: the pIC50 on p38α was less than 5.00.
As for `CC(C)(C)C1CCC(Oc2cc(F)cc(C(=O)Nc3ccc(OCCN4CCOCC4)c4ccccc34)c2)CC1` (stereo not drawn) [Compound B216], the pIC50 on p38α is less than 5.00.
For `O=C(Nc1ccc(OCCN2C(=O)CCC2=O)c2ccccc12)c1cc(F)cc(N2CCOCC2)c1` [Compound B221], the pIC50 on p38α is less than 5.00.
Same read-out and setting: next, `O=C(Nc1ccc(OCc2ccco2)c2ccccc12)c1cc(F)cc(N2CCOCC2)c1` [Compound B223]: 4.89.
As for `O=C(Nc1ccc(OCCN2CCOCC2)c2ccccc12)c1cccc(-c2cccc(F)c2)c1` [Compound B272], the pIC50 in test [1] is 5.47.
On the same count and under the same terms, next, `CN(C)C(=O)[C@@H]1CCCN1c1nccc(Oc2ccc(NC(=O)c3cc(F)cc(N4CCCCC4)c3)c3ccccc23)n1` [Compound B408]: less than 6.00.
